Entries after “also recorded” stand apart in the source; their conditions may differ.
How the values were obtained:
[1] = molecular target: T1, recombinant human mGlu7 receptor (Homo sapiens, UniProt Q14831); assay: NAM mGlu7 activity, forskolin-induced cAMP (HTRF) in T-REx 293 cell line; format: cell-based; details: forskolin-stimulated cAMP response, 5 µM LSP4-2022 (EC80), T-REx 293 human mGlu7; for Inhibition (%): 10 μM compound
T1 construct: expressed in transfected cells; host or cells: T-REx 293 (tetracycline-inducible)
Method: The cell lines with the tetracycline-inducible expression of human metabotropic receptors 4, 7, and 8 were described in detail by Chruścicka et al. (mGlu4 receptor NM_000841, mGlu7 receptor NM_000844.2, and mGlu8 receptor NM_000845). Cells were grown under standard cell culture conditions (37 °C, 5% CO2) in DMEM supplemented with 10% tetracycline-free FBS. The expression was induced through the addition of tetracycline to the culture medium at 0.75 μg/mL.
The determination of the intracellular cAMP through homogeneous time-resolved fluorescence (HTRF) was described in detail previously. Briefly, 48 h before the experiments, the expression of the receptor was induced through the addition of tetracycline to the culture medium; the next day, FBS and L-Glu were removed from the medium. Just before the cAMP measurement, the cells were detached and centrifuged. Then, the cell suspension in Hanks-HEPES (130 mM NaCl, 5.4 mM KCl, 1.8 mM CaCl2, 0.8 mM MgSO4, 0.9 mM NaH2PO4, 20 mM HEPES, and 3.25 mM glucose; pH 7.4) was incubated in the presence of 10 µM forskolin (mGlu7 receptor, 3 µM forskolin), the agonist LSP4-2022 or L-Glu (for mGlu4 and mGlu8), and a compound for 5 min. The intracellular concentration of cyclic AMP was measured by means of a cAMP Gi HTRF kit from Cisbio, according to the manufacturer’s instructions. After 1 h of incubation at room temperature, the fluorescence at 620 nm and 665 nm was read (Tecan Infinite M1000). The results were calculated as the 665 nm/620 nm ratio multiplied by 10^4. Each sample was prepared in triplicate. Data were analyzed using GraphPad Prism version 5.04 for Windows (GraphPad Software, San Diego, USA).
The activity of the compounds was examined in the T-REx 293-cell-line-expressing recombinant human mGlu7 receptor by detecting the level of cyclic AMP in the presence of 5 µM forskolin [7, 41]. […] The substances were incubated with 5 µM LSP4-2022 (EC80).
Firstly, all compounds were screened at 10 μM using three cell lines expressing the mGlu4/7/8 receptor to evaluate selectivity. For the mGlu4 and mGlu8 receptors, glutamic acid was used as an agonist and had good potency. […] VU0155041 and AZ12216052 were used as reference compounds for the mGlu4 and mGlu8 receptors, respectively. The parameter described as “% of inhibition” was introduced to compare the bioactivity of the new compounds to the reference NAM at a 10 μM concentration in the presence of 5 μM LSP4-2022 (0%) and 3 μM forskolin (100%). […] For compounds that passed the screening procedure, the dose–response curve in the presence of LSP4-2022 in 5 μM was evaluated compared to reference NAM ADX71743. Only compounds ALX-063, ALX-065, and ALX-171 (Figure S3, Supplementary Materials) met our conditions regarding bioactivity. All of them were further investigated to determine the EC50 and receptor selectivity. […]
2.1. NAM mGlu7 receptor activity on T-Rex 293 cell line
The activity of compounds was examined on T-REx 293 cell line expressing recombinant human mGlu7 receptor by detecting the level of cyclic AMP in the presence of 5 µM forskolin [14,15]. The cell line was […]
incubated with 5 µM of LSP4-2022 (EC80).

[2] = molecular target: T1, recombinant human mGlu7 receptor; assay: as above; format: cell-based
[3] = tested on: animal models of schizophrenia; details: mGlu7 PAM; cited from earlier work

T1 sequence (Q14831 35-915): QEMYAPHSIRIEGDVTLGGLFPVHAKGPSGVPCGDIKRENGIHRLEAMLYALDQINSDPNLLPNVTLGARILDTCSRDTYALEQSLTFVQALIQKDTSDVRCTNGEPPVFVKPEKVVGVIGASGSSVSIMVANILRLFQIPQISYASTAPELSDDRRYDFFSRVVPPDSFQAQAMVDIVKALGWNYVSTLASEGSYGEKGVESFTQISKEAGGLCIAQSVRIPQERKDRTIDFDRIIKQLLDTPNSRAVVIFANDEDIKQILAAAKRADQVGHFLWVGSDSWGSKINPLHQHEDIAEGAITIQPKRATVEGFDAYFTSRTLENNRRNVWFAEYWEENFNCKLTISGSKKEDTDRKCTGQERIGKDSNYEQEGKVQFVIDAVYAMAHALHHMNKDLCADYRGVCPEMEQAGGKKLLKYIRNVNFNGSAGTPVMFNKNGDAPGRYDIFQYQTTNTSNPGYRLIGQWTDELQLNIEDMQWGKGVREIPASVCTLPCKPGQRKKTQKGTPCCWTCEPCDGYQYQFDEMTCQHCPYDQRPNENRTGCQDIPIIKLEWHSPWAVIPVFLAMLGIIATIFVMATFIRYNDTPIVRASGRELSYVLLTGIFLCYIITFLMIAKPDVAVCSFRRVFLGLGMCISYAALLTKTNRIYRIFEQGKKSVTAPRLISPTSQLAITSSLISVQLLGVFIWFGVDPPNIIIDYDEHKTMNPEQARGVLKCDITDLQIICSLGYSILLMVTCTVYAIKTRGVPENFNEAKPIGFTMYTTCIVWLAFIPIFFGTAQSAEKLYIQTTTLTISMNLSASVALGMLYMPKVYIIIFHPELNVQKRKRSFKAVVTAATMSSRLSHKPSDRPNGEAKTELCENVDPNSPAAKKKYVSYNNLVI

Structure (SMILES) | Inhibition (%) [1] | other results
COc1cccc(-c2ccc3nc(-c4ccccc4Cl)n(C)c(=O)c3c2)c1 [A9-5] | Inactive | 
COc1ccc(-c2ccc3nc(-c4ccccc4Cl)n(C)c(=O)c3c2)cc1OC [A9-9] | Inactive | 
COc1ccc(-c2ccc3nc(-c4ccccc4Cl)n(C)c(=O)c3c2)cc1 [A9-6] | not observed; also recorded: Inactive | 
Cn1c(-c2ccccc2)nc2ccc(-c3ccccc3)cc2c1=O [ALX-063, 3-methyl-2,6-diphenylquinazolin-4(3H)-one] |  | inhibition at 10 µM ([1]; T-REx-293, 10 μM compound): 42.5 ± 36.5%; IC50 ([2]; T-REx 293 cells expressing human mGlu7, 5 µM LSP4-2022 (EC80), 5 µM forskolin): 6.5 µM
COc1ccc(-c2ccc3nc(-c4ccccc4Cl)n(C)c(=O)c3c2)c(OC)c1 [A9-8] | Inactive | 
c1ccc(C(NCCNC(c2ccccc2)c2ccccc2)c2ccccc2)cc1 [AMN082] |  | activity in animal models [3]: propsychotic activity
N[C@@H](CCC(=O)O)C(=O)O [L-Glu] |  | agonist potency at mGlu7 receptor ([2]; agonist compared with LSP4-2022): ~ 1 mM
COc1ccccc1-c1ccc2nc(-c3ccccc3Cl)n(C)c(=O)c2c1 [A9-4] | Inactive | 

Now from value to compound, other results behind:

Inhibition (%) [1] | Structure (SMILES) | other results
Inactive | COc1cc(OC)cc(-c2ccc3nc(-c4ccccc4Cl)n(C)c(=O)c3c2)c1 [A9-11] | 
Inactive | COc1cccc(OC)c1-c1ccc2nc(-c3ccccc3Cl)n(C)c(=O)c2c1 [A9-12] | 
Inactive | COc1ccc(OC)c(-c2ccc3nc(-c4ccccc4Cl)n(C)c(=O)c3c2)c1 [A9-10] | 

Reference: publication PMC9916658, “Design and Synthesis of New Quinazolin-4-one Derivatives with Negative mGlu7 Receptor Modulation Activity and Antipsychotic-Like Properties” (International Journal of Molecular Sciences, 2023)
